Measured values taken from ChEMBL document CHEMBL1201862, “PubChem BioAssay data set” (2004).
Blank lines part the entries; values can stand above or below the molecule they belong to. Calls of active or inactive are those of the source.

Tests used:
[1] = target: NAD-dependent protein deacylase sirtuin-5, mitochondrial (Homo sapiens, UniProt Q9NXA8); test: SIRT5 desuccinylase inhibitors, dose response, biochemical, fluorescence imaging, cherry-pick, set 5 (AID 720591);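 note: desuccinylation of succinyl peptide AMC substrate read as fluorescence after trypsin release; potency of inhibitors that lower fluorescence and may act on trypsin instead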
[2] = target: Protein Tat (Human immunodeficiency virus type 1 group M subtype B (isolate HXB2)(HIV-1), UniProt P04608); format: functional;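 note: tat binding to TAR RNA read out by fluorescence polarization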
[3] = target: Mitogen-activated protein kinase 10 (Homo sapiens, UniProt P53779); test: Dose response biochemical screening assay for inhibitors of c-Jun N-Terminal Kinase 3 (JNK3). [Related pubchem assays: 746 ]
[4] = target: DNA dC->dU-editing enzyme APOBEC-3A (Homo sapiens, UniProt P31941); test: Dose Response confirmation of small molecule APOBEC3A DNA Deaminase Inhibitors via a fluorescence-based single-stranded DNA deaminase assay. [Related pubchem assays (depositor defined):AID493011, AID493024]; format: functional
[5] = target: DNA dC->dU-editing enzyme APOBEC-3G (Homo sapiens, UniProt Q9HC16); format: functional;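 note: Dose-response counterscreen measuring inhibition of APOBEC3G DNA deaminase activity, run while confirming APOBEC3A inhibitors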
[6] = Dose-response inhibition of insulin secretion in a rat insulinoma line at 5 mM glucose (AID 1117331); format: functional, cell-based; conditions: INS-1E
[7] = cells; format: functional, cell-based; conditions: INS-1E
[8] = target: T1, Fatty acid synthase (Homo sapiens, UniProt P49327); test: FAS thioesterase domain inhibitors, dose response, biochemical, endpoint fluorescence intensity, uHTS hits (AID 624327); format: functional;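 note: fluorescence from hydrolysis of an O-methyl fluorescein acyl ester substrate by the enzyme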
[9] = HeLa cell cytotoxicity, dose response, cytotoxicity control for MgcRacGAP inhibitor project (AID 624300); format: functional
[10] = target: T2, Rac GTPase-activating protein 1 (Homo sapiens, UniProt Q9H0H5); test: MgcRacGAP GTPase-activating activity inhibitors, confirmation, biochemical, ADP Hunter fluorescence, primary and confirmatory (AID 624330); format: functional
T2 sequence (Q9H0H5 whole entry): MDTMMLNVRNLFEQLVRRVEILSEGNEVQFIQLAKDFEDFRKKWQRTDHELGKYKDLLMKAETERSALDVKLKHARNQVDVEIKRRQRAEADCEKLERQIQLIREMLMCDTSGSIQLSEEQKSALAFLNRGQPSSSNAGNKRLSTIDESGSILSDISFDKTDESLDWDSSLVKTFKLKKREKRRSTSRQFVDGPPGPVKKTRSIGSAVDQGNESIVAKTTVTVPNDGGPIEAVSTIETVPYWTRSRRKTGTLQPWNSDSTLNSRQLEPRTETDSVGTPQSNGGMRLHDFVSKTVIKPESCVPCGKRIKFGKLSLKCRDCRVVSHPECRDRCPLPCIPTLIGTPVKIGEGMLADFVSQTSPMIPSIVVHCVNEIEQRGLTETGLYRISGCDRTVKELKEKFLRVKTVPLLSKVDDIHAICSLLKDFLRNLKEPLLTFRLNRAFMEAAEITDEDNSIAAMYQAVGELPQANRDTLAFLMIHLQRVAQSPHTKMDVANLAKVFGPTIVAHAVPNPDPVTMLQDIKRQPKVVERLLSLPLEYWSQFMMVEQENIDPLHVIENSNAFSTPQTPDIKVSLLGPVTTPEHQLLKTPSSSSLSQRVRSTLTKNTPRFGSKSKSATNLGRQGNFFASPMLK

[11] = target: T1, Fatty acid synthase; test: FAS thioesterase domain inhibitors, dose response, biochemical, kinetic fluorescence intensity (AID 624326); format: functional;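 note: rate of fluorescence rise from hydrolysis of a fluorogenic O-methyl fluorescein ester substrate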
[12] = Luminescence-based cell-based high throughput dose response assay to identify activators of the DAF-12 from the parasite S. stercoralis (ssDAF-12).; format: functional
[13] = target: T3, Oxysterols receptor LXR-beta (Homo sapiens, UniProt P55055); test: LXR agonists, Gal4 luciferase reporter, dose response, counter-screen for ssDAF-12 agonist project, cell-based, luminescence, HEK293, S. stercoralis campaign (AID 720737); format: functional; conditions: read-out: IC50 (the source's name)
T3 sequence (P55055 whole entry): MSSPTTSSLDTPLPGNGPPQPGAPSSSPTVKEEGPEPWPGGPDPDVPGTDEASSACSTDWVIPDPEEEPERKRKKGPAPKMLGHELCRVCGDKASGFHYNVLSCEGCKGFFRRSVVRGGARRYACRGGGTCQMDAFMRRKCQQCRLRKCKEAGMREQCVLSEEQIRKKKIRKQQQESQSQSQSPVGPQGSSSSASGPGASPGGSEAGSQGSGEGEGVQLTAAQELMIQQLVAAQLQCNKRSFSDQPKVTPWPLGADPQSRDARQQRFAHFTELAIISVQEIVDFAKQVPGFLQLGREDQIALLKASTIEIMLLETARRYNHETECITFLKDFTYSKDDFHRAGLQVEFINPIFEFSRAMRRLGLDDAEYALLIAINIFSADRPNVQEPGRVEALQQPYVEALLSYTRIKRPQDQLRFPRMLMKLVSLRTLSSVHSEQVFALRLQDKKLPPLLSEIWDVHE

[14] = target: Neuropeptide Y receptor type 2 (Homo sapiens, UniProt P49146); test: NPY-Y2 antagonist potency, selectivity check, dose response, counter-screen for NPY-Y1 antagonist project, cell-based (AID 1278); format: functional
[15] = inhibitors of HIV Env-driven cell fusion, dose response, cherry-pick (AID 652057); format: functional, cell-based
[16] = inhibitors of clade B AD8 Env fusion, dose response, cell-based, cherry-pick (AID 652062); format: functional;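 note: luciferase signal from cell-cell fusion driven by HIV-1 clade B AD8 Env; potency is for inhibitors of fusion seen as a drop in luminescence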
[17] = HIV Env cell-cell fusion inhibitors, dose response, HIV entry, plate reader, dry powder (AID 687023); format: functional, cell-based
[18] = CEM21 cell cytotoxicity, dose response, cytotoxicity control, plate reader, dry powder (AID 687026); format: functional, cell-based

T1 sequence (P49327 whole entry, the tested form may be a part): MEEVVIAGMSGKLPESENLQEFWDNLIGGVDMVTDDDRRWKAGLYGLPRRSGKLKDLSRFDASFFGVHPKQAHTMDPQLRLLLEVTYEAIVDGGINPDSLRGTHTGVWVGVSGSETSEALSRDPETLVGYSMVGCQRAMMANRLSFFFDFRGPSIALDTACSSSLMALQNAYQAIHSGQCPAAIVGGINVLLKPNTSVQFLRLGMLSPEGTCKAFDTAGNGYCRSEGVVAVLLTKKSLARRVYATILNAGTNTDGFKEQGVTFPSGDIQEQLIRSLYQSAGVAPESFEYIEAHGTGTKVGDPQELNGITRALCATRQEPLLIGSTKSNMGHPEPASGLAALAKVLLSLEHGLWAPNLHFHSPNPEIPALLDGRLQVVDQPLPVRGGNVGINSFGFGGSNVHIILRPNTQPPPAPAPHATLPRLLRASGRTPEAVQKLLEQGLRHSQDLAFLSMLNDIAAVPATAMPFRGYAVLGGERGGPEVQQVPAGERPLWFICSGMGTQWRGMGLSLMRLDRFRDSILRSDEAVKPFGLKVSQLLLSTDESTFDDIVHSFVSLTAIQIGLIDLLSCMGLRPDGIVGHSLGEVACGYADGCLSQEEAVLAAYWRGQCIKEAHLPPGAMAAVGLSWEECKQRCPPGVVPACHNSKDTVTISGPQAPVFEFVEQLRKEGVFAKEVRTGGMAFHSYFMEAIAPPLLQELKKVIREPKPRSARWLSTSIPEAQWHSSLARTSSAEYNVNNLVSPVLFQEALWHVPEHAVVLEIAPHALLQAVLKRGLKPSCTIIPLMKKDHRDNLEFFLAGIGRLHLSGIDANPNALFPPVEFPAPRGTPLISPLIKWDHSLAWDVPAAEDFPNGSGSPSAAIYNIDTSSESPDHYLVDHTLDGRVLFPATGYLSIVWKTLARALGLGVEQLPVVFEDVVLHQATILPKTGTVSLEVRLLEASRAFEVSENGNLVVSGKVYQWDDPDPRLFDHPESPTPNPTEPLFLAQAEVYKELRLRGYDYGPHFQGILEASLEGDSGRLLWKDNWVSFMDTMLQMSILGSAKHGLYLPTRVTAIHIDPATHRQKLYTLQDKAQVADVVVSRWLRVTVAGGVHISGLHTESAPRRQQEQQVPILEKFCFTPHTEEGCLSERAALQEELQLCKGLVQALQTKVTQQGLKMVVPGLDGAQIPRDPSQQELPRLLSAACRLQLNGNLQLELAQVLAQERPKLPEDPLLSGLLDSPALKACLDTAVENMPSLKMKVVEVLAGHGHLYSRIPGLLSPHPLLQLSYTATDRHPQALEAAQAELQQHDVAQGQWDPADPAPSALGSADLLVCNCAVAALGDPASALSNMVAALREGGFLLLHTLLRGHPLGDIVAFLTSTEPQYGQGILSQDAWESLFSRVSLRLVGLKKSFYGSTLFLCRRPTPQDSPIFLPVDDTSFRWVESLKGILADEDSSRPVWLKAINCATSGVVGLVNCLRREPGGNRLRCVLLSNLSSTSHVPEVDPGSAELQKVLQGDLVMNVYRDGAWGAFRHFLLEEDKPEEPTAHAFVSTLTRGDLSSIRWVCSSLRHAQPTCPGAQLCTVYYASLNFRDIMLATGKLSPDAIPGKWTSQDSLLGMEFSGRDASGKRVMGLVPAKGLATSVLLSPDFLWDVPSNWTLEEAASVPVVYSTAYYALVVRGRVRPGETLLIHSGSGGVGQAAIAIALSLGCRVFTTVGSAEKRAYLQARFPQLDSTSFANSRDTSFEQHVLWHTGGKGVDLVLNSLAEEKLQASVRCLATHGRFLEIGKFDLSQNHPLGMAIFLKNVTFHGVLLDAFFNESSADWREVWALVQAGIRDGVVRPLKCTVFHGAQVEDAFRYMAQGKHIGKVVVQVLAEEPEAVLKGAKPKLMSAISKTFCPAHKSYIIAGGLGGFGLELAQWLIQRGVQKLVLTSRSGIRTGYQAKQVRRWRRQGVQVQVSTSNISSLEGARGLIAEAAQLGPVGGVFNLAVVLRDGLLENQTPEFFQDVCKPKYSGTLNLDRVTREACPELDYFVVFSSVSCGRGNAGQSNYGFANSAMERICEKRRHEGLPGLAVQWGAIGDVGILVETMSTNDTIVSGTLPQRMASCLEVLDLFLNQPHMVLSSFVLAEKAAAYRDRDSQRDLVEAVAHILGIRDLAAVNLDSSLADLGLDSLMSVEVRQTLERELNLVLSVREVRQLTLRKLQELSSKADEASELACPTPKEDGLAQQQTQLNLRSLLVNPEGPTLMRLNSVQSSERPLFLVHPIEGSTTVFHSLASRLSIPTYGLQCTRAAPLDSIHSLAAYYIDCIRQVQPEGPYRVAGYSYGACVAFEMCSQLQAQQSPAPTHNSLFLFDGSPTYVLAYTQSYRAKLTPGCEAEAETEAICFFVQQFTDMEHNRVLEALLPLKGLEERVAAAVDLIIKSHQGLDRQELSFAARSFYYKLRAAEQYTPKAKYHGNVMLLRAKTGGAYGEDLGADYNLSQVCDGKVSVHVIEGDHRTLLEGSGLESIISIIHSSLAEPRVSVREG
Sequence of Neuropeptide Y receptor type 2 (P49146 whole entry, the tested form may be a part): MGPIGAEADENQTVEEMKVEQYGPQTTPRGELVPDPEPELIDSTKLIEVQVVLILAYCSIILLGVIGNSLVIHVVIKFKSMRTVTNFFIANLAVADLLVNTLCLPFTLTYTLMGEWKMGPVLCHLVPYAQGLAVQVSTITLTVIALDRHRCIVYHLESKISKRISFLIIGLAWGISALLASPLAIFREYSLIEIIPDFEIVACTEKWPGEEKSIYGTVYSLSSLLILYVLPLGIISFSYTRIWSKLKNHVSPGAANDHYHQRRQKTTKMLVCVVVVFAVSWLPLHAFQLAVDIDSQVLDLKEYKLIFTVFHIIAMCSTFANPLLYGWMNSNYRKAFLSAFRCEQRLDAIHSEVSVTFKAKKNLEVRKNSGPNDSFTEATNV
Sequence of Protein Tat (P04608 whole entry): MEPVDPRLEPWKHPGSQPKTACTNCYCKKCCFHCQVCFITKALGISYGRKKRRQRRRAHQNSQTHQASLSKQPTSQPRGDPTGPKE
Sequence of NAD-dependent protein deacylase sirtuin-5, mitochondrial (Q9NXA8 whole entry): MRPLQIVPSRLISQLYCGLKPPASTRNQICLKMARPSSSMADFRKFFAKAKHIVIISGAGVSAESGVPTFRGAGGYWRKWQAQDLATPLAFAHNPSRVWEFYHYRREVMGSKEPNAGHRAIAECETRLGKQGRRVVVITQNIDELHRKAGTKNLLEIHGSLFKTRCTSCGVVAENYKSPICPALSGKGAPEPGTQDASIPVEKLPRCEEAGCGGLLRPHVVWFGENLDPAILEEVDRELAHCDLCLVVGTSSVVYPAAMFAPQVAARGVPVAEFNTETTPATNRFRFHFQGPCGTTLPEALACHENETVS
Sequence of Mitogen-activated protein kinase 10 (P53779 whole entry): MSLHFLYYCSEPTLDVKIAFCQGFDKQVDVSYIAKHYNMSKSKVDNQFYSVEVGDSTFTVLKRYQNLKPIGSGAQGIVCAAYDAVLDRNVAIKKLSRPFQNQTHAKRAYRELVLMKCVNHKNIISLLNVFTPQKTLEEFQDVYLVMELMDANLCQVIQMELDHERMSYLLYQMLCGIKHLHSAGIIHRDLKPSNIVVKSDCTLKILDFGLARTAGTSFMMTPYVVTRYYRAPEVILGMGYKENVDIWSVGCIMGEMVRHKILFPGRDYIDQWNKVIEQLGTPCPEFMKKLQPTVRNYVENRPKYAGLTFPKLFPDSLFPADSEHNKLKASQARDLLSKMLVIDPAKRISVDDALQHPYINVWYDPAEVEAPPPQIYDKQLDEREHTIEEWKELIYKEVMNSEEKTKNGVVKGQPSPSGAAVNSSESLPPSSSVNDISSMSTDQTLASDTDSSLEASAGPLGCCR
Sequence of DNA dC->dU-editing enzyme APOBEC-3G (Q9HC16 whole entry): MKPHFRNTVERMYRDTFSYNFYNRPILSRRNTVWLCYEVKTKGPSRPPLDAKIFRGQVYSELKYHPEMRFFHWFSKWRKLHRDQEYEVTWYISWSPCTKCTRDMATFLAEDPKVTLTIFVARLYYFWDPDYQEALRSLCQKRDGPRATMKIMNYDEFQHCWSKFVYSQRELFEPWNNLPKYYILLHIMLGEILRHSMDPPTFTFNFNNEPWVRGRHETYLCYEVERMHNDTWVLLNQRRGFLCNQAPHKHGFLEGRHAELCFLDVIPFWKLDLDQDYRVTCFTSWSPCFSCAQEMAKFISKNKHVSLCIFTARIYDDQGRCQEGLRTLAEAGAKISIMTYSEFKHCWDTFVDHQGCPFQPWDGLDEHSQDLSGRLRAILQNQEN
Sequence of DNA dC->dU-editing enzyme APOBEC-3A (P31941 whole entry): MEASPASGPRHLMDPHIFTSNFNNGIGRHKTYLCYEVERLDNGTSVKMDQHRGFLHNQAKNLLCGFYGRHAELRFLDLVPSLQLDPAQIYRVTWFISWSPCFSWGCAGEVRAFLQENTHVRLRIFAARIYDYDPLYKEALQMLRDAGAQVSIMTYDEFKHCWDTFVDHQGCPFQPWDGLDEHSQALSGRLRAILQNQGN

AC50 [1]: > 30 µM (inactive)
SMILES: Cc1cccc(Cn2c(N(C)CCO)nc3c2c(=O)[nH]c(=O)n3C)c1

IC50 [2]: > 100 µM (active)
SMILES: CCc1ccccc1N(CC(=O)NCCSCc1ccco1)S(C)(=O)=O

SMILES: CC1(C)Oc2ccc3ccc(=O)oc3c2-c2c[nH]nc21
IC50 [3]: > 31 µM (not active)
IC50 [4]: 4.45 µM (active)
IC50 [5]: 5.7 µM (active)

SMILES: c1cc(CN2CCCCC2)cc(OCCCNc2nc3ccccc3s2)c1
IC50 [6]: > 11.1 µM (inactive)
IC50 [7]: > 33.3 µM (inactive)

SMILES: CCC(C)n1c(=S)[nH]c2c(sc3ccc([N+](=O)[O-])cc32)c1=O (stereo not drawn)
IC50 [8]: 17.1 µM (active)
CC50 [9]: 100 µM (active)
IC50 [10]: 73.3 µM (active)
IC50 [11]: 15.5 µM (active)
IC50 [12]: > 67.5 µM (inactive)
EC50 [13]: > 67.5 µM (inactive)

IC50 [14]: 24.4 µM (not active)
SMILES: CC(C)CC(c1nnnn1C1CCCC1)N1CCN(c2ccccc2F)CC1 (stereo not drawn)

SMILES: C[C@@H]1CN([C@H](C)CO)C(=O)c2cccc(NC(=O)C3CCCCC3)c2O[C@H]1CN(C)Cc1ccccc1
AC50 [15]: 12.1 µM (active)
AC50 [16]: 3.35 µM (active)
AC50 [17]: 8.1 µM (active)
AC50 [18]: 31 µM (active)
